Assay results as given in patent EP3046573B1, “AMYLIN ANALOGUES” (Zealand Pharma A/S, priority 2013, dated 2015).
Numbered stars: 1 amine (or outer) side, 2 acyl side, 3 side chain; on linkers, the order of the positions; unused ones are H or OH. Bridge positions count the residues as written; N and C are the ends. Square brackets hold non-standard residues; d marks the D form. Peptide text beside a SMILES is read from it. * marks the point of attachment. C20 diacid = O=C(O)CCCCCCCCCCCCCCCCCCC(=O)*; γGlu = O=C(O)[C@H](CCC(=O)[*:2])N[*:1]; NMeI = CC[C@H](C)[C@H](NC)C(=O)O; Sar = CNCC(=O)O

Assays:
[1] = Solubility assessment (turbidity absorbance at 325 nm); assay type: physicochemical; conditions: stock 2 mg/ml diluted 1:1, ambient temperature (typically 25°C), n=1; for Solubility, Acetate buffer pH 4: 100 mM acetate buffer pH 4.0; for Solubility, Acetate buffer pH 5: 100 mM acetate buffer pH 5.0; for Solubility, Histidine buffer pH 6: 100 mM histidine buffer pH 6.0; for Solubility, Histidine buffer pH 7: 100 mM histidine buffer pH 7.0; for Solubility, Phosphate buffer pH 6: 100 mM phosphate buffer pH 6.0; for Solubility, Phosphate buffer pH 7: 100 mM phosphate buffer pH 7.0; for Solubility, Phosphate buffer pH 7.5: 100 mM phosphate buffer pH7.5
Summary of the method: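 Peptide stock (2 mg/ml, water pH 2.5) diluted 1:1 into 100 mM acetate (pH 4.0, 5.0), histidine (pH 6.0, 7.0) or phosphate (pH 6.0–7.5) buffer; absorbance at 325 nm read at about 25°C, n=1. A325 ≤ 0.02 taken as solubility ≥ 1 mg/ml.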

[2] = target: T1, human calcitonin receptor (hCTR2) (Homo sapiens, UniProt P30988); experiment: hCTR2 assay: induction of cAMP (AlphaScreen cAMP Assay kit) in COS7 cells expressing hCTR2; assay type: cell-based
T1 construct: expressed in transfected cells
T1 sequence (P30988 25-474): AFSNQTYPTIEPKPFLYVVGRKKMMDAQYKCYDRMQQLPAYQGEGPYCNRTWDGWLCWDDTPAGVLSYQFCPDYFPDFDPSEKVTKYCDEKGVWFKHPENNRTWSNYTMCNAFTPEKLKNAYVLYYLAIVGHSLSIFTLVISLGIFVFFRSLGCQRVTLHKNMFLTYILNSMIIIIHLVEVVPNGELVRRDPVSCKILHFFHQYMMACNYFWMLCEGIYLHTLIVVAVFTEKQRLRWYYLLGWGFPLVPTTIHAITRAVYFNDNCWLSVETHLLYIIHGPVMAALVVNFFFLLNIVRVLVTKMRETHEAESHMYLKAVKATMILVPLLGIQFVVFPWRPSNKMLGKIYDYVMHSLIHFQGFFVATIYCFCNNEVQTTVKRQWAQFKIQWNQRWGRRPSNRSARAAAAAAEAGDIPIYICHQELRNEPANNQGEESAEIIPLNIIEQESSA
Summary of the method: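 COS7 stable hCTR2 clone (RAMP-free); peptide dose-response 15 min 37° C in Tyrode pH 7.4 + 100 µM IBMX + 0.1% casein; lysis 10 min RT; AlphaScreen cAMP; 4PL fit.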

[3] = Assessment of chemical stability: normalized purity by RP-HPLC after incubation at 40 °C; assay type: physicochemical; conditions: normalized purity (T=0 set to 100), 0.2 mg/ml; for Chem. stability; 7 days, 40°C pH 4: pH 4, 7 days; for Chem. stability; 7 days, 40°C pH 7.5: pH 7.5, 7 days; for Chem. stability; 7 days, 40°C pH 9: pH 9, 7 days
Description: Samples of each test peptide were dissolved in MilliQ™ water, and the pH of the solution was adjusted to pH 4, pH 7.5 or pH 9, respectively, using either HCI or NaOH. The final peptide concentration was 0.2 mg/ml. Samples were placed in glass vials and incubated at 40 °C. The samples were analyzed by RP-HPLC on a C8 column with gradient elution using an ammonium formate/water eluent system, or on a C18 column with gradient elution using a trifluoroacetic acid/water eluent system. The area-percentage (area-%) of the main peak after incubation time T = t (relative to time T = 0) was determined by UV spectroscopy at 220 nm.
The purity was first determined as follows: Purity(area−%) = (area of main peak/total area of all peaks) × 100. [formula]
The purity was then normalized between time points by setting purity at time 0 (T=0) to 100 for each pH value for a given peptide, as follows: Normalised area−%at time t(T = t) = [area−%(T = t)/area−%(T = 0)] × 100. [formula]
The normalized purity values in Table 2 were determined after 7 days of incubation. Table 2. EC50, chemical stability and fibrillation data for compounds of the invention

[4] = system: Zucker diabetic fatty (ZDF) rats; experiment: Glycemic control in Zucker diabetic fatty rats; assay type: in vivo, male Zucker diabetic fatty (ZDF) rats; conditions: 40 nmol/kg sc twice daily (bid), P < 0.001
Description: (§1) Whole-blood glucose levels were determined on tail-vein blood samples by the Biosen (EKF Diagnostic, Germany) enzyme-based electrode method. Blood samples were analyzed for glycated hemoglobin (HbA1c) using a Cobas c111 analyzer (Roche Diagnostics, Mannheim, Germany). Plasma insulin levels were measured using a Meso Scale Discovery (MSD) system (Rockville, MD, USA). Liver fat content was determined by magnetic resonance (MR) scanning using an Echo systems MR scanner. Fat depots were measured by weighing of excised fat.
84 male Zucker diabetic fatty (ZDF) rats (9-10 weeks of age) were used in this study. The animals were housed in groups of n = 2. Stratification of the animals was based on non-fasting blood glucose (primary), changes in non-fasting blood glucose measured from the arrival of the animals until one week before the initiation of the study (secondary) and body weight (tertiary). The animals were further divided into two "teams" with a pair-fed group (group 2) allocated to team 2. […] The amount of food eaten by the animals treated with Compound 82 (30 nmol/kg, team 1) each day was determined, and the same amount was given to a vehicle-treated pair-fed group of animals the following day. […]
Statistical analyses were performed using GraphPad™ Prism version 5. The measured parameters were compared using one- way ANOVA followed by Dunnett's multiple comparison test. […]

[5] = system: male Zucker diabetic fatty (ZDF) rats; experiment: Efficacy testing: glycemic control in Zucker diabetic fatty rats; assay type: in vivo
Description: as §1
84 male Zucker diabetic fatty (ZDF) rats (9-10 weeks of age) were used in this study. The animals were housed in groups of n = 2. Stratification of the animals was based on non-fasting blood glucose (primary), changes in non-fasting blood glucose measured from the arrival of the animals until one week before the initiation of the study (secondary) and body weight (tertiary). The animals were further divided into two "teams" with a pair-fed group (group 2) allocated to team 2. Animals from group 2 were pair-fed in order to compare between the contribution made by reduced food intake and by drug-induced effects on glycemic control. The amount of food eaten by the animals treated with Compound 82 (30 nmol/kg, team 1) each day was determined, and the same amount was given to a vehicle-treated pair-fed group of animals the following day.
Rats were treated for 4 weeks with Compound 82 (3, 30 and 100 nmol/kg, sc, every (ev.) 5th day), Compound 18 (30 nmol/kg sc, every 5th day), or the GLP-1 analogue liraglutide (40 nmol/kg sc, twice daily (bid)).
The effects of the compounds on glycemic control were investigated by measurement of non-fasting and fasting blood glucose levels and HbA1c levels.
Statistical analyses were performed using GraphPad™ Prism version 5. The measured parameters were compared using one- way ANOVA followed by Dunnett's multiple comparison test. Comparison between the pair-fed vehicle-treated group and the Compound 82 (30 nmol/kg) group was done using Student's two-tailed and unpaired t-test. Differences were considered statistically significant at p < 0.05.

Compound | Solubility, Acetate buffer pH 4 [1] | Solubility, Acetate buffer pH 5 [1] | Solubility, Histidine buffer pH 6 [1] | Solubility, Histidine buffer pH 7 [1] | Solubility, Phosphate buffer pH 6 [1] | Solubility, Phosphate buffer pH 7 [1] | Solubility, Phosphate buffer pH 7.5 [1] | EC50 [2] | Chem. stability; 7 days, 40°C pH 4 [3] | Chem. stability; 7 days, 40°C pH 7.5 [3] | Chem. stability; 7 days, 40°C pH 9 [3] | blood glucose levels (non-fasting and fasting) [4] | terminal HbA1c levels ([5]; 40 nmol/kg sc twice daily (bid), 4 weeks, vehicle 8.7 ± 0.2) | blood glucose lowering effect ([5]; 40 nmol/kg sc twice daily, P < 0.001)
CC[C@H](C)[C@@H](C(=O)N[C@@H](CC(C)C)C(=O)N[C@@H](CO)C(=O)N[C@@H](CO)C(=O)N[C@H](C(=O)N[C@@H](CC(N)=O)C(=O)N[C@H](C(=O)NCC(=O)N[C@@H](CO)C(=O)N[C@@H](CC(N)=O)C(=O)N[C@H](C(=O)N1CCC[C@H]1C(N)=O)[C@@H](C)O)C(C)C)[C@@H](C)O)N(C)C(=O)[C@H](C)NC(=O)CN(C)C(=O)[C@H](Cc1ccccc1)NC(=O)[C@H](CC(N)=O)NC(=O)[C@H](CC(N)=O)NC(=O)[C@H](CO)NC(=O)[C@@H](CO)NC(=O)[C@H](Cc1c[nH]cn1)NC(=O)[C@H](Cc1c[nH]cn1)NC(=O)[C@H](CC(C)C)NC(=O)[C@H](Cc1ccccc1)NC(=O)[C@H](CCC(=O)O)NC(=O)[C@H](C)NC(=O)[C@H](CC(C)C)NC(=O)[C@H](CCCNC(=N)N)NC(=O)[C@H](CCC(N)=O)NC(=O)[C@@H](NC(=O)[C@H](C)NC(=O)[C@@H]1CSSC[C@H](NC(=O)[C@H](CCCNC(=N)N)NC(=O)CC[C@H](NC(=O)CCCCCCCCCCCCCCCCCCC(=O)O)C(=O)O)C(=O)N[C@@H](CC(N)=O)C(=O)N[C@@H]([C@@H](C)O)C(=O)N[C@@H](C)C(=O)N[C@@H]([C@@H](C)O)C(=O)N1)[C@@H](C)O [Compound 29, [19CD]-isoGlu-RC()NTATC()ATQRLAEFLHH-DSer-SNNF-Gly(Me)-A-Ile(Me)-LSSTNVGSNTP-NH2] ({C20 diacid-γGlu}-RCNTATCATQRLAEFLHH[dS]SNNF[Sar]A[NMeI]LSSTNVGSNTP-NH2; disulfide 2-7) | SS (SS indicates solubility ≥ 1mg/ml) | SS (SS indicates solubility ≥ 1mg/ml) | SS (SS indicates solubility ≥ 1mg/ml) | SS (SS indicates solubility ≥ 1mg/ml) | SS (SS indicates solubility ≥ 1mg/ml) | SS (SS indicates solubility ≥ 1mg/ml) | SS (SS indicates solubility ≥ 1mg/ml) | 0.42 nM | 100 area-% | 69 area-% | 53 area-% | – | – | –
CC[C@H](C)[C@@H](C(=O)N[C@@H](CC(C)C)C(=O)N[C@@H](CO)C(=O)N[C@@H](CO)C(=O)N[C@H](C(=O)N[C@@H](CC(N)=O)C(=O)N[C@H](C(=O)NCC(=O)N[C@@H](CO)C(=O)N[C@@H](CC(N)=O)C(=O)N[C@H](C(=O)N1CCC[C@H]1C(N)=O)[C@@H](C)O)C(C)C)[C@@H](C)O)N(C)C(=O)[C@H](C)NC(=O)CN(C)C(=O)[C@H](Cc1ccccc1)NC(=O)[C@H](CC(N)=O)NC(=O)[C@H](CC(N)=O)NC(=O)[C@@H](CO)NC(=O)[C@H](CO)NC(=O)[C@H](Cc1c[nH]cn1)NC(=O)[C@H](Cc1c[nH]cn1)NC(=O)[C@H](CC(C)C)NC(=O)[C@H](Cc1ccccc1)NC(=O)[C@H](CCC(=O)O)NC(=O)[C@H](C)NC(=O)[C@H](CC(C)C)NC(=O)[C@H](CCCNC(=N)N)NC(=O)[C@H](CCC(N)=O)NC(=O)[C@@H](NC(=O)[C@H](C)NC(=O)[C@@H]1CSSC[C@H](NC(=O)[C@H](CCCNC(=N)N)NC(=O)CC[C@H](NC(=O)CCCCCCCCCCCCCCCCCCC(=O)O)C(=O)O)C(=O)N[C@@H](CC(N)=O)C(=O)N[C@@H]([C@@H](C)O)C(=O)N[C@@H](C)C(=O)N[C@@H]([C@@H](C)O)C(=O)N1)[C@@H](C)O [Compound 31, [19CD]-isoGlu-RC()NTATC()ATQRLAEFLHHS-DSer-NNF-Gly(Me)-A-Ile(Me)-LSSTNVGSNTP-NH2] ({C20 diacid-γGlu}-RCNTATCATQRLAEFLHHS[dS]NNF[Sar]A[NMeI]LSSTNVGSNTP-NH2; disulfide 2-7) | – | – | – | – | – | – | – | – | 80 area-% | 66 area-% | – | – | – | –
CC[C@H](C)[C@@H](C(=O)N[C@@H](CC(C)C)C(=O)N[C@@H](CO)C(=O)N[C@@H](CO)C(=O)N[C@H](C(=O)N[C@@H](CC(N)=O)C(=O)N[C@H](C(=O)NCC(=O)N[C@@H](CO)C(=O)N[C@@H](CC(N)=O)C(=O)N[C@H](C(=O)N1CCC[C@H]1C(N)=O)[C@@H](C)O)C(C)C)[C@@H](C)O)N(C)C(=O)[C@H](C)NC(=O)CN(C)C(=O)[C@H](Cc1ccccc1)NC(=O)[C@H](CC(N)=O)NC(=O)[C@H](CC(N)=O)NC(=O)[C@H](CO)NC(=O)[C@H](CO)NC(=O)[C@H](CCCNC(=N)N)NC(=O)[C@H](Cc1c[nH]cn1)NC(=O)[C@H](CC(C)C)NC(=O)[C@H](Cc1ccccc1)NC(=O)[C@H](CCC(=O)O)NC(=O)[C@H](C)NC(=O)[C@H](CC(C)C)NC(=O)[C@H](CCCNC(=N)N)NC(=O)[C@H](CCC(N)=O)NC(=O)[C@@H](NC(=O)[C@H](C)NC(=O)[C@@H]1CSSC[C@H](NC(=O)[C@H](Cc2c[nH]c3ccccc23)NC(=O)CC[C@H](NC(=O)CCCCCCCCCCCCCCCCCCC(=O)O)C(=O)O)C(=O)N[C@@H](CC(N)=O)C(=O)N[C@@H]([C@@H](C)O)C(=O)N[C@@H](C)C(=O)N[C@@H]([C@@H](C)O)C(=O)N1)[C@@H](C)O [Compound 125, [19CD]-isoGlu-WC()NTATC()ATQRLAEFLHRSSNNF-Gly(Me)-A-Ile(Me)-LSSTNVGSNTP-NH2] ({C20 diacid-γGlu}-WCNTATCATQRLAEFLHRSSNNF[Sar]A[NMeI]LSSTNVGSNTP-NH2; disulfide 2-7) | SS (SS indicates solubility ≥ 1mg/ml) | SS (SS indicates solubility ≥ 1mg/ml) | SS (SS indicates solubility ≥ 1mg/ml) | SS (SS indicates solubility ≥ 1mg/ml) | II (II indicates solubility ≤ 1 mg/ml) | SS (SS indicates solubility ≥ 1mg/ml) | SS (SS indicates solubility ≥ 1mg/ml) | 0.061 nM | 77 area-% | 70 area-% | 68 area-% | – | – | –
liraglutide | – | – | – | – | – | – | – | – | – | – | – | significant blood glucose lowering effect | – | –
liraglutide [reference compound] | – | – | – | – | – | – | – | – | – | – | – | – | 5.8 ± 0.2% | significant
